Source: patent EP2522335A1, “Use of resveratrol and sodium-ascorbyl-phophate” (DSM IP Assets B.V., priority 2011, dated 2012)
Like-named read-outs stand apart in the source and are kept apart here.

Test system: TYR
Assay: Assessment of gene modulation in normal human epidermal melanocytes (RT-qPCR, PCR array mQPA H-Melanocyte-64)
Assay type: cell-based
Conditions: NHEM cells, 72 hours treatment
Protocol: Normal human epidermal melanocytes were cultivated for 24 hours. Culture medium was then removed and replaced by fresh medium containing the active ingredient to be evaluated or exempt of it (control). Cells were cultivated for additional 72 hours. All experimental conditions were performed in triplicate. At the end of the cultivation, the cells were harvested and washed with phosphate buffered saline (PBS) solution and immediately frozen at -80 °C. The expression of selected markers was analyzed using RT-qPCR method on mRNA extracted from cells layer for each treatment condition. The differential expression analysis was performed by PCR arrays of the screening format "mQPA H-Melanocyte-64", which focuses on 64 genes selected for their importance in pigmentation and melanocyte biology. Total RNA was extracted from each sample using TRI-Reagent®. The amount and quality of the RNA was evaluated using a lab-on-a-chip Bioanalyzer (Agilent technologies). Potential contaminants traces of DNA were removed […] The incorporation of fluorescence in amplified DNA was measured continuously during the PCR cycles. […] The value selected for RE calculations is the "output point" (Ct) of the fluorescence curve. For a given marker, the highest is the cycle number; the lowest, is the mRNA quantity. The RE value is expressed in arbitrary units (AU) according to the equation: (((1)/(2)))^NC x 10^6 [formula] Where NC is the number of cycles.

[1] = resveratrol 5 µg/ml, sodium-ascorbyl-phosphate 1 mg/ml, combination 5 µg/ml + 1 mg/ml, read-out: TYR (expression ratio compared to control of the gene TYR)
[2] = resveratrol 5 micrograms/ml, sodium-ascorbyl-phosphate 1mg/ml, alone or combined, positive = up-regulation, negative = down-regulation, read-out: up-regulation / down-regulation of TYR when compared to untreated cells

Row | Structure (SMILES) | activation at 5 µg/mL [1] | activation at 5 µg/mL [2] | activation at 1000 µg/mL [1] | activation at 1000 µg/mL [2]
1 | Oc1ccc(C=Cc2cc(O)cc(O)c2)cc1 [Resveratrol, 3,4',5 trihydroxystilbene] | 25% | 25% | – | –
2 | O=C1O[C@H]([C@@H](O)CO)C(O)=C1OP(=O)(O)O [Sodium-ascorbyl-phosphate] | – | – | 30% | 30%
